Structures are written as SMILES. Numbered stars: 1 amine (or outer) side, 2 acyl side, 3 side chain; on linkers, the order of the positions; unused ones are H or OH. Bridge positions count the residues as written; N and C are the ends. Square brackets hold non-standard residues; d marks the D form. Peptide text beside a SMILES is read from it. * marks the point of attachment. Tartaroyl(2R,3R-(OAc)2) = CC(=O)O[C@@H](C(=O)[*:1])[C@@H](OC(C)=O)C(=O)[*:2]; Phe(4-CF3) = N[C@@H](Cc1ccc(C(F)(F)F)cc1)C(=O)O; dPhe(3,4-F2) = N[C@H](Cc1ccc(F)c(F)c1)C(=O)O; dPhe(3-CN) = N#Cc1cccc(C[C@@H](N)C(=O)O)c1; dPhe(3-OMe) = COc1cccc(C[C@@H](N)C(=O)O)c1; dPhe(4-CN) = N#Cc1ccc(C[C@@H](N)C(=O)O)cc1; Bip = N[C@@H](Cc1ccc(-c2ccccc2)cc1)C(=O)O; dPhe(4-NH2) = Nc1ccc(C[C@@H](N)C(=O)O)cc1; Phe(4-Br) = N[C@@H](Cc1ccc(Br)cc1)C(=O)O; dPhe(2-CN) = N#Cc1ccccc1C[C@@H](N)C(=O)O; dPhe(3-Cl) = N[C@H](Cc1cccc(Cl)c1)C(=O)O; Phe(4-NH2) = Nc1ccc(C[C@H](N)C(=O)O)cc1; dAla(2-furyl) = N[C@H](Cc1ccco1)C(=O)O; dPhe(2-Cl) = N[C@H](Cc1ccccc1Cl)C(=O)O; dPhe(4-F) = N[C@H](Cc1ccc(F)cc1)C(=O)O; d1Nal = N[C@H](Cc1cccc2ccccc12)C(=O)O; d2Nal = N[C@H](Cc1ccc2ccccc2c1)C(=O)O; d(hhPhe) = N[C@H](CCCc1ccccc1)C(=O)O; d3Pal = N[C@H](Cc1cccnc1)C(=O)O; d4Pal = N[C@H](Cc1ccncc1)C(=O)O; d2Thi = N[C@H](Cc1cccs1)C(=O)O; d3Thi = N[C@H](Cc1ccsc1)C(=O)O; dCha = N[C@H](CC1CCCCC1)C(=O)O; Suc = O=C(CCC(=O)[*:2])[*:1]; Bn = c1ccc(C*)cc1

The target in this experiment is T1, TNFα / TNFα receptor (TNFα R1/Fc) (Homo sapiens, UniProt P01375).
T1 construct: purchased R&D Systems
T1 sequence (P01375 77-233 limits assumed, species assumed): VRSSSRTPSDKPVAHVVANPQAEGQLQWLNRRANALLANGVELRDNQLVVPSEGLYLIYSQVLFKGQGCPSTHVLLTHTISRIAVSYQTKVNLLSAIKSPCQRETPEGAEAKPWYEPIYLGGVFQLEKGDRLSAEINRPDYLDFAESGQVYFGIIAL
Nature of the experiment: Inhibition of binding of TNFα to the TNFα receptor (plate ELISA competition). The settings on record: Table 2; read-out: Activity (IC50, inhibition of TNFα binding to TNFα R1/Fc). In outline: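 Compound dilutions were preincubated 30 min at RT with 8.33 nM TNFα R1/Fc in PBST with 2% DMSO, then added to wells coated with 15 nM TNFα for 30 min. Bound receptor was detected with HRP anti-human Fc and TMB, read as A450.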
As for `O=C1CCC(=O)N[C@H](Cc2ccsc2)C(=O)N[C@@H](Cc2ccc(-c3ccccc3)cc2)C(=O)N[C@H](Cc2ccccc2)C(=O)N[C@H](C(=O)O)Cc2ccc(cc2)N1` [Compound 122] ([d3Thi][Bip][dF][Phe(4-NH2)]-OH; linker N-4 via Suc), the IC50 was 30 to 100 µM.
To `O=C1CCC(=O)N[C@H](Cc2ccco2)C(=O)N[C@@H](Cc2ccc(-c3ccccc3)cc2)C(=O)N[C@H](Cc2ccccc2)C(=O)N[C@H](C(=O)O)Cc2ccc(cc2)N1` [Compound 123] ([dAla(2-furyl)][Bip][dF][Phe(4-NH2)]-OH; linker N-4 via Suc) belongs 30 to 100 µM; to `O=C1CCC(=O)N[C@H](CC2CCCCC2)C(=O)N[C@@H](Cc2ccc(-c3ccccc3)cc2)C(=O)N[C@H](Cc2ccccc2)C(=O)N[C@H](C(=O)O)Cc2ccc(cc2)N1` [Compound 124] ([dCha][Bip][dF][Phe(4-NH2)]-OH; linker N-4 via Suc), over 100 µM.
`O=C1CCC(=O)N[C@H](Cc2c[nH]c3ccccc23)C(=O)N[C@@H](Cc2ccc(-c3ccccc3)cc2)C(=O)N[C@H](Cc2ccccc2)C(=O)N[C@H](C(=O)O)Cc2ccc(cc2)N1` [Compound 125] ([dW][Bip][dF][Phe(4-NH2)]-OH; linker N-4 via Suc): the IC50 is over 100 µM.
As for `O=C1CCC(=O)N[C@H](Cc2cccnc2)C(=O)N[C@@H](Cc2ccc(-c3ccccc3)cc2)C(=O)N[C@H](Cc2ccccc2)C(=O)N[C@H](C(=O)O)Cc2ccc(cc2)N1` [Compound 126] ([d3Pal][Bip][dF][Phe(4-NH2)]-OH; linker N-4 via Suc), the IC50 is over 100 µM.
On to `O=C1CCC(=O)N[C@H](Cc2ccncc2)C(=O)N[C@@H](Cc2ccc(-c3ccccc3)cc2)C(=O)N[C@H](Cc2ccccc2)C(=O)N[C@H](C(=O)O)Cc2ccc(cc2)N1` [Compound 127] ([d4Pal][Bip][dF][Phe(4-NH2)]-OH; linker N-4 via Suc), for which the IC50 was over 100 µM.
Regarding `O=C1CCC(=O)N[C@H](Cc2ccccc2)C(=O)N[C@@H](Cc2ccc(-c3ccccc3)cc2)C(=O)N[C@H](Cc2ccccc2)C(=O)N[C@H](C(=O)O)Cc2ccc(cc2)N1` [Compound 128] ([dF][Bip][dF][Phe(4-NH2)]-OH; linker N-4 via Suc), the IC50 lay in the range of 30 to 100 µM.
For `N#Cc1ccccc1C[C@H]1NC(=O)CCC(=O)Nc2ccc(cc2)C[C@@H](C(=O)O)NC(=O)[C@@H](Cc2ccccc2)NC(=O)[C@H](Cc2ccc(C(F)(F)F)cc2)NC1=O` [Compound 129] ([dPhe(2-CN)][Phe(4-CF3)][dF][Phe(4-NH2)]-OH; linker N-4 via Suc), the IC50 is 30 to 100 µM.
To `N#Cc1cccc(C[C@H]2NC(=O)CCC(=O)Nc3ccc(cc3)C[C@@H](C(=O)O)NC(=O)[C@@H](Cc3ccccc3)NC(=O)[C@H](Cc3ccc(C(F)(F)F)cc3)NC2=O)c1` [Compound 130] ([dPhe(3-CN)][Phe(4-CF3)][dF][Phe(4-NH2)]-OH; linker N-4 via Suc) belongs 10 to 30 µM.
For `N#Cc1ccc(C[C@H]2NC(=O)CCC(=O)Nc3ccc(cc3)C[C@@H](C(=O)O)NC(=O)[C@@H](Cc3ccccc3)NC(=O)[C@H](Cc3ccc(C(F)(F)F)cc3)NC2=O)cc1` [Compound 131] ([dPhe(4-CN)][Phe(4-CF3)][dF][Phe(4-NH2)]-OH; linker N-4 via Suc), the IC50 is 30 to 100 µM.
Consider `O=C1CCC(=O)N[C@H](Cc2ccccc2Cl)C(=O)N[C@@H](Cc2ccc(C(F)(F)F)cc2)C(=O)N[C@H](Cc2ccccc2)C(=O)N[C@H](C(=O)O)Cc2ccc(cc2)N1` [Compound 132] ([dPhe(2-Cl)][Phe(4-CF3)][dF][Phe(4-NH2)]-OH; linker N-4 via Suc), for which the IC50 was in the range of 30 to 100 µM.
Take `O=C1CCC(=O)N[C@H](Cc2cccc(Cl)c2)C(=O)N[C@@H](Cc2ccc(C(F)(F)F)cc2)C(=O)N[C@H](Cc2ccccc2)C(=O)N[C@H](C(=O)O)Cc2ccc(cc2)N1` [Compound 133] ([dPhe(3-Cl)][Phe(4-CF3)][dF][Phe(4-NH2)]-OH; linker N-4 via Suc): the IC50 was 30 to 100 µM.
`O=C1CCC(=O)N[C@H](Cc2ccc(F)cc2)C(=O)N[C@@H](Cc2ccc(C(F)(F)F)cc2)C(=O)N[C@H](Cc2ccccc2)C(=O)N[C@H](C(=O)O)Cc2ccc(cc2)N1` [Compound 134] ([dPhe(4-F)][Phe(4-CF3)][dF][Phe(4-NH2)]-OH; linker N-4 via Suc): the IC50 was over 100 µM.
Consider `O=C1CCC(=O)N[C@H](Cc2ccc(F)c(F)c2)C(=O)N[C@@H](Cc2ccc(C(F)(F)F)cc2)C(=O)N[C@H](Cc2ccccc2)C(=O)N[C@H](C(=O)O)Cc2ccc(cc2)N1` [Compound 135] ([dPhe(3,4-F2)][Phe(4-CF3)][dF][Phe(4-NH2)]-OH; linker N-4 via Suc), for which the IC50 was 30 to 100 µM.
For the molecule `O=C1CCC(=O)N[C@H](CCCc2ccccc2)C(=O)N[C@@H](Cc2ccc(C(F)(F)F)cc2)C(=O)N[C@H](Cc2ccccc2)C(=O)N[C@H](C(=O)O)Cc2ccc(cc2)N1` [Compound 136] ([d(hhPhe)][Phe(4-CF3)][dF][Phe(4-NH2)]-OH; linker N-4 via Suc), the IC50 lay in the range of 30 to 100 µM.
On to `O=C1CCC(=O)N[C@H](COCc2ccccc2)C(=O)N[C@@H](Cc2ccc(C(F)(F)F)cc2)C(=O)N[C@H](Cc2ccccc2)C(=O)N[C@H](C(=O)O)Cc2ccc(cc2)N1` [Compound 137] ([dS](Bn)[Phe(4-CF3)][dF][Phe(4-NH2)]-OH; linker N-4 via Suc), for which the IC50 lay in the range of 30 to 100 µM.
For the molecule `COc1cccc(C[C@H]2NC(=O)CCC(=O)Nc3ccc(cc3)C[C@@H](C(=O)O)NC(=O)[C@@H](Cc3ccccc3)NC(=O)[C@H](Cc3ccc(C(F)(F)F)cc3)NC2=O)c1` [Compound 138] ([dPhe(3-OMe)][Phe(4-CF3)][dF][Phe(4-NH2)]-OH; linker N-4 via Suc), the IC50 is over 100 µM.
As to `N=C(N)NCCC[C@H]1NC(=O)CCC(=O)Nc2ccc(cc2)C[C@@H](C(=O)O)NC(=O)[C@@H](Cc2ccccc2)NC(=O)[C@H](Cc2ccc(C(F)(F)F)cc2)NC1=O` [Compound 141] ([dR][Phe(4-CF3)][dF][Phe(4-NH2)]-OH; linker N-4 via Suc), the IC50 was over 100 µM.
As to `O=C1CCC(=O)N[C@H](Cc2cccc3ccccc23)C(=O)N[C@@H](Cc2ccc(C(F)(F)F)cc2)C(=O)N[C@H](Cc2ccccc2)C(=O)N[C@H](C(=O)O)Cc2ccc(cc2)N1` [Compound 142] ([d1Nal][Phe(4-CF3)][dF][Phe(4-NH2)]-OH; linker N-4 via Suc), the IC50 was in the range of 30 to 100 µM.
For `O=C1CCC(=O)N[C@H](Cc2ccc3ccccc3c2)C(=O)N[C@@H](Cc2ccc(C(F)(F)F)cc2)C(=O)N[C@H](Cc2ccccc2)C(=O)N[C@H](C(=O)O)Cc2ccc(cc2)N1` [Compound 143] ([d2Nal][Phe(4-CF3)][dF][Phe(4-NH2)]-OH; linker N-4 via Suc), the IC50 was over 100 µM.
To `O=C1COc2ccc(cc2)C[C@@H](C(=O)O)NC(=O)[C@@H](CCc2ccccc2)NC(=O)[C@H](Cc2ccc(-c3ccccc3)cc2)NC(=O)[C@@H](CCc2ccccc2)N1` [Compound 144] belongs 10 to 30 µM; to `O=C1COc2ccc(cc2)C[C@@H](C(=O)O)NC(=O)[C@@H](CCc2ccccc2)NC(=O)[C@H](Cc2ccc(-c3ccccc3)cc2)NC(=O)[C@@H](Cc2cccs2)N1` [Compound 145], 10 to 30 µM; to `O=C1COc2ccc(cc2)C[C@@H](C(=O)O)NC(=O)[C@@H](CCc2ccccc2)NC(=O)[C@H](Cc2ccc(C(F)(F)F)cc2)NC(=O)[C@@H](Cc2ccc(C(F)(F)F)cc2)N1` [Compound 146], 10 to 30 µM.
For the molecule `O=C1COc2ccc(cc2)C[C@@H](C(=O)O)NC(=O)[C@@H](CCc2ccccc2)NC(=O)[C@H](Cc2ccc(Cl)cc2Cl)NC(=O)[C@@H](Cc2cccs2)N1` [Compound 147], the IC50 is 30 to 100 µM.
Turning to `O=C1COc2ccc(cc2)C[C@@H](C(=O)O)NC(=O)[C@@H](CCc2ccccc2)NC(=O)[C@H](Cc2ccc(Cl)cc2Cl)NC(=O)[C@@H](Cc2ccc(C(F)(F)F)cc2)N1` [Compound 148], the IC50 lay within 30 to 100 µM.
On to `O=C1COc2ccc(cc2)C[C@@H](C(=O)O)NC(=O)[C@@H](CCc2ccccc2)NC(=O)[C@H](Cc2ccc(Cl)cc2Cl)NC(=O)[C@@H](CCc2ccccc2)N1` [Compound 149], for which the IC50 was in the range of 10 to 30 µM.
Turning to `O=C1COc2ccc(cc2)C[C@@H](C(=O)O)NC(=O)[C@@H](CCc2ccccc2)NC(=O)[C@H](Cc2ccc(-c3ccccc3)cc2)NC(=O)[C@@H](Cc2ccc(C(F)(F)F)cc2)N1` [Compound 150], the IC50 lay in the range of 30 to 100 µM.
On to `O=C1COc2ccc(cc2)C[C@@H](C(=O)O)NC(=O)[C@@H](CCc2ccccc2)NC(=O)[C@H](Cc2ccc(C(F)(F)F)cc2)NC(=O)[C@@H](CCc2ccccc2)N1` [Compound 151], for which the IC50 lay in the range of 30 to 100 µM.
Take `O=C1CCC(=O)N[C@H](Cc2ccccc2)C(=O)N[C@@H](Cc2ccc(Br)cc2)C(=O)N[C@H](Cc2ccco2)C(=O)N[C@@H](C(=O)O)Cc2ccc(cc2)N1` [Compound 153] ([dF][Phe(4-Br)][dAla(2-furyl)][dPhe(4-NH2)]-OH; linker N-4 via Suc): the IC50 is over 100 µM.
Take `CC(=O)O[C@H]1C(=O)Nc2ccc(cc2)C[C@H](C(=O)O)NC(=O)[C@@H](Cc2ccco2)NC(=O)[C@H](Cc2ccc(Br)cc2)NC(=O)[C@@H](Cc2cccs2)NC(=O)[C@@H]1OC(C)=O` [Compound 154] ([d2Thi][Phe(4-Br)][dAla(2-furyl)][dPhe(4-NH2)]-OH; linker N-4 via Tartaroyl(2R,3R-(OAc)2)): the IC50 is over 100 µM.
With `O=C1N[C@H](Cc2ccco2)C(=O)N[C@@H](C(=O)O)Cc2ccc(cc2)NC(=O)[C@H](O)[C@@H](O)C(=O)N[C@H](Cc2cccs2)C(=O)N[C@H]1Cc1ccc(Br)cc1` [Compound 155], the IC50 was over 100 µM.
Take `O=C1CCC(=O)N[C@H](Cc2cccs2)C(=O)N[C@@H](Cc2ccc(Br)cc2)C(=O)N[C@H](Cc2ccco2)C(=O)N[C@@H](C(=O)O)Cc2ccc(cc2)N1` [Compound 159] ([d2Thi][Phe(4-Br)][dAla(2-furyl)][dPhe(4-NH2)]-OH; linker N-4 via Suc): the IC50 was 10 to 30 µM.
